We go through 13 molecules from PubChem BioAssay AID200 (DTP/NCI, 2004).

Values joined by “and” are separate entries in the source; they are usually repeats but may differ in a detail not shown here. Identical values can stand only once. Toxic doses and inconclusive results are not listed. Where a SMILES comes first, the peptide text is derived from it. The star is where a group is joined. Boc = CC(C)(C)OC(=O)*

For the assay, the system named is B6C3F1 mice, B16 melanoma ip, median survival T/C. In words: NCI In Vivo Anticancer Drug Screen. Data for tumor model B16 Melanoma (intraperitoneal) in B6C3F1 mice. The note with it: endpoint: median survival time, higher = longer survival. The procedure, abridged:
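Mice bearing transplanted tumor were dosed with compound or vehicle, and survival was recorded. Activity is expressed as the treated-group measurement (T) divided by the vehicle control measurement (C).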

Where [1] appears, read: dose: 25.0 mg/kg/injection, schedule: Q01DX009 (ip), vehicle: saline.
Where [2] appears, read: dose: 50.0 mg/kg/injection, schedule: Q01DX009 (ip), vehicle: saline.
The mark [3] stands for this setting: dose: 12.5 mg/kg/injection, schedule: Q01DX009 (ip), vehicle: saline with Tween-80.
The mark [4] stands for this setting: dose: 25.0 mg/kg/injection, schedule: Q01DX009 (ip), vehicle: saline with Tween-80.
Setting [5] is: dose: 50.0 mg/kg/injection, schedule: Q01DX009 (ip), vehicle: saline with Tween-80.
The mark [6] stands for this setting: dose: 50.0 mg/kg/injection, schedule: Q01DX009 (ip), vehicle: Klucel (hydroxypropylcellulose) (HPC).
Setting [7] is: dose: 100.0 mg/kg/injection, schedule: Q01DX009 (ip), vehicle: Klucel (hydroxypropylcellulose) (HPC).
Where [8] appears, read: dose: 200.0 mg/kg/injection, schedule: Q01DX009 (ip), vehicle: Klucel (hydroxypropylcellulose) (HPC).
Where [9] appears, read: dose: 400.0 mg/kg/injection, schedule: Q01DX009 (ip), vehicle: Klucel (hydroxypropylcellulose) (HPC).

For the molecule `CC(C)NC(=O)OCc1c(COC(=O)NC(C)C)c(-c2ccc(Cl)c(Cl)c2)n2c1C[C@@H](O)C2`, the T/C (dose: 5.0 mg/kg/injection, schedule: Q01DX009 (ip), vehicle: water) is 160 % of control; the T/C (dose: 10.0 mg/kg/injection, schedule: Q01DX009 (ip), vehicle: water) was 196 % of control; the T/C (dose: 20.0 mg/kg/injection, schedule: Q01DX009 (ip), vehicle: Klucel (hydroxypropylcellulose) (HPC)) is 196 % of control; the T/C (dose: 20.0 mg/kg/injection, schedule: Q01DX009 (ip), vehicle: water) was 289 % of control; the T/C (dose: 40.0 mg/kg/injection, schedule: Q01DX009 (ip), vehicle: Klucel (hydroxypropylcellulose) (HPC)) was 223 % of control; the T/C (dose: 40.0 mg/kg/injection, schedule: Q01DX009 (ip), vehicle: water) is 191 % of control. Also, the T/C (dose: 80.0 mg/kg/injection, schedule: Q01DX009 (ip), vehicle: Klucel (hydroxypropylcellulose) (HPC)) was 101 % of control.
Regarding `C1CN1P1(N2CC2)=NP(N2CC2)(N2CC2)=NP(N2CC2)(N2CC2)=N1`, the T/C is 116 % of control and 94 % of control (dose: 1.0 mg/kg/injection, schedule: Q01DX009 (ip), vehicle: Klucel (hydroxypropylcellulose) (HPC)); 113 % of control and 114 % of control (dose: 1.0 mg/kg/injection, schedule: Q02DX009 (ip), vehicle: Klucel (hydroxypropylcellulose) (HPC)); 119 % of control (dose: 2.0 mg/kg/injection, schedule: Q01DX009 (ip), vehicle: Klucel (hydroxypropylcellulose) (HPC)); 114 % of control and 106 % of control (dose: 2.0 mg/kg/injection, schedule: Q02DX009 (ip), vehicle: Klucel (hydroxypropylcellulose) (HPC)); 120 % of control and 122 % of control (dose: 4.0 mg/kg/injection, schedule: Q02DX009 (ip), vehicle: Klucel (hydroxypropylcellulose) (HPC)); 180 % of control (dose: 8.0 mg/kg/injection, schedule: Q01DX009 (ip), vehicle: Klucel (hydroxypropylcellulose) (HPC)). Further, the T/C is 117 % of control (dose: 8.0 mg/kg/injection, schedule: Q02DX009 (ip), vehicle: Klucel (hydroxypropylcellulose) (HPC)) and 195 % of control (dose: 16.0 mg/kg/injection, schedule: Q02DX009 (ip), vehicle: Klucel (hydroxypropylcellulose) (HPC)).
`CSCCC(N)C(=O)O` (stereo not drawn): the T/C under setting [1] was 106 % of control; the T/C under setting [2] is 94 % of control; the T/C (dose: 100.0 mg/kg/injection, schedule: Q01DX009 (ip), vehicle: saline) was 100 % of control; the T/C (dose: 200.0 mg/kg/injection, schedule: Q01DX009 (ip), vehicle: saline) is 113 % of control; the T/C (dose: 400.0 mg/kg/injection, schedule: Q01DX009 (ip), vehicle: saline) is 99 % of control.
As for `N=C(N)SCc1c2ccccc2c(CSC(=N)N)c2ccccc12`, the T/C was 156 % of control (dose: 6.25 mg/kg/injection, schedule: Q01DX009 (ip), vehicle: saline); 181 % of control (dose: 12.5 mg/kg/injection, schedule: Q01DX009 (ip), vehicle: saline); 228 % of control under setting [1]; 320 % of control under setting [2].
Consider `COc1ccc(CC2C(=O)NC(C)C(=O)N(C)C3Cc4ccc(cc4)Oc4cc(ccc4O)CC(C(=O)NC(C)C(=O)NC(C)C(=O)N2C)N(C)C3=O)cc1` (stereo not drawn), for which the T/C is, setting by setting: (dose: 0.25 mg/kg/injection, schedule: Q01DX009 (ip), vehicle: saline with Tween-80) 158 % of control; (dose: 0.5 mg/kg/injection, schedule: Q01DX005 (ip), vehicle: saline with Tween-80) 110 % of control; (dose: 0.5 mg/kg/injection, schedule: Q01DX005 (iv), vehicle: saline with Tween-80) 102 % of control and 104 % of control; (dose: 0.5 mg/kg/injection, schedule: Q01DX009 (ip), vehicle: saline + Tween-80 + alcohol) 118 % of control; (dose: 0.5 mg/kg/injection, schedule: Q01DX009 (ip), vehicle: saline with Tween-80) 162 % of control and 166 % of control; (dose: 1.0 mg/kg/injection, schedule: Q01DX005 (ip), vehicle: saline with Tween-80) 124 % of control. The T/C by setting is: (dose: 1.0 mg/kg/injection, schedule: Q01DX005 (iv), vehicle: saline with Tween-80) 109 % of control and 105 % of control; (dose: 1.0 mg/kg/injection, schedule: Q01DX009 (ip), vehicle: saline + Tween-80 + alcohol) 117 % of control; (dose: 1.0 mg/kg/injection, schedule: Q01DX009 (ip), vehicle: saline with Tween-80) 91 % of control; (dose: 2.0 mg/kg/injection, schedule: Q01DX005 (iv), vehicle: saline with Tween-80) 122 % of control and 107 % of control; (dose: 2.0 mg/kg/injection, schedule: Q01DX009 (ip), vehicle: saline with Tween-80) 122 % of control; (dose: 4.0 mg/kg/injection, schedule: Q01DX005 (ip), vehicle: saline with Tween-80) 122 % of control. The T/C (dose: 4.0 mg/kg/injection, schedule: Q01DX005 (iv), vehicle: saline with Tween-80) was 109 % of control and 111 % of control; the T/C (dose: 4.0 mg/kg/injection, schedule: Q01DX009 (ip), vehicle: other) was 150 % of control; the T/C (dose: 4.0 mg/kg/injection, schedule: Q01DX009 (ip), vehicle: saline with Tween-80) was 161 % of control; the T/C (dose: 8.0 mg/kg/injection, schedule: Q01DX005 (iv), vehicle: saline with Tween-80) is 110 % of control and 116 % of control; the T/C (dose: 8.0 mg/kg/injection, schedule: Q01DX009 (ip), vehicle: other) is 159 % of control.
With `CN=C(N)N/N=C(\c1ccccc1)c1ccc(Br)cc1`, the T/C runs as follows: (dose: 1.5 mg/kg/injection, schedule: Q01DX009 (ip), vehicle: saline with Tween-80) 103 % of control; (dose: 3.0 mg/kg/injection, schedule: Q01DX009 (ip), vehicle: saline with Tween-80) 107 % of control; (dose: 6.0 mg/kg/injection, schedule: Q01DX009 (ip), vehicle: saline with Tween-80) 97 % of control; (dose: 12.0 mg/kg/injection, schedule: Q01DX009 (ip), vehicle: saline with Tween-80) 96 % of control.
As to `COc1ccc(C[C@H](N)C(=O)NC2C(CO)OC(n3cnc4c(N(C)C)ncnc43)C2O)cc1` (stereo partly drawn), the T/C is, setting by setting: (dose: 5.0 mg/kg/injection, schedule: Q01DX009 (ip), vehicle: saline) 103 % of control and 105 % of control; (dose: 10.0 mg/kg/injection, schedule: Q01DX009 (ip), vehicle: saline) 114 % of control and 106 % of control; (dose: 20.0 mg/kg/injection, schedule: Q01DX009 (ip), vehicle: saline) 112 % of control and 116 % of control; (dose: 40.0 mg/kg/injection, schedule: Q01DX009 (ip), vehicle: saline) 118 % of control and 122 % of control.
With `CC(C)(C)OC(=O)NC(CCCCNC(=O)C(F)(F)F)C(=O)ON1C(=O)CCC1=O` (stereo not drawn), the T/C is 91 % of control under setting [3]; 94 % of control under setting [4]; 96 % of control and 102 % of control under setting [5].
As to `CCC[CH2][Sn]1([CH2]CCC)[O]C2C(CO)OC(n3ccc(N)nc3=O)C2[O]1` (stereo not drawn), the T/C (dose: 0.05 mg/kg/injection, schedule: Q01DX009 (ip), vehicle: Klucel (hydroxypropylcellulose) (HPC)) was 94 % of control; the T/C (dose: 0.1 mg/kg/injection, schedule: Q01DX009 (ip), vehicle: Klucel (hydroxypropylcellulose) (HPC)) was 90 % of control; the T/C (dose: 0.2 mg/kg/injection, schedule: Q01DX009 (ip), vehicle: Klucel (hydroxypropylcellulose) (HPC)) is 101 % of control; the T/C (dose: 0.4 mg/kg/injection, schedule: Q01DX009 (ip), vehicle: Klucel (hydroxypropylcellulose) (HPC)) is 95 % of control.
Regarding `C=Cc1cnc([N+](=O)[O-])n1C`, the T/C is, setting by setting: (dose: 12.5 mg/kg/injection, schedule: Q01DX009 (ip), vehicle: Klucel (hydroxypropylcellulose) (HPC)) 99 % of control and 106 % of control; (dose: 25.0 mg/kg/injection, schedule: Q01DX009 (ip), vehicle: Klucel (hydroxypropylcellulose) (HPC)) 103 % of control and 107 % of control; under setting [6], 100 % of control and 105 % of control; under setting [7], 109 % of control and 106 % of control; under setting [8], 110 % of control and 100 % of control.
`CSCCC(NC(=O)C(CC(C)C)NC(=O)OC(C)(C)C)C(N)=O` (stereo not drawn) (Boc-Leu-Met-NH2; configuration not given here): the T/C was 86 % of control under setting [6]; 98 % of control and 102 % of control under setting [7]; 97 % of control and 100 % of control under setting [8]; 101 % of control under setting [9].
With `CC(C)(OC(=O)NC(CC(N)=O)C(=O)O)c1ccc(-c2ccccc2)cc1` (stereo not drawn), the T/C reads like this: under setting [7], 97 % of control; under setting [8], 91 % of control; under setting [9], 89 % of control.
On to `CC(C)CC(NC(=O)OCc1ccccc1)C(=O)O` (stereo not drawn), for which the T/C reads like this: under setting [3], 108 % of control; under setting [4], 102 % of control; under setting [5], 102 % of control and 106 % of control; (dose: 100.0 mg/kg/injection, schedule: Q01DX009 (ip), vehicle: saline with Tween-80) 112 % of control and 101 % of control; (dose: 200.0 mg/kg/injection, schedule: Q01DX009 (ip), vehicle: saline with Tween-80) 105 % of control.
